Drawing on patent US20200352854A1, “DEVICES AND METHODS FOR PREVENTING AND INHIBITING PERIODONTAL DISEASE” (Fixed Focus LLC, priority 2019, published 2020), this text covers solubility for 2 substances.

A short description of the data set: water solubility of complex carbohydrate agents. The data set is classed as physicochemical. The protocol:
Specific solubilities are: dextran, 50 mg/ml; hydroxymethylcellulose, 10 mg/ml; cellulose, 0 mg/ml; oat beta glucan, 20 mg/ml.

oat beta glucan registered a solubility of 20 mg/mL.

Substance hydroxymethylcellulose had a solubility of 10 mg/mL. Against the preceding substance, the solubility is about 2-fold lower.

By solubility is commonly meant the concentration that dissolves in the medium under given conditions.
